According to ChEMBL document CHEMBL1124085, “Flavins as potential antimalarials. 1. 10-(Halophenyl)-3-methylflavins” (1988):
Where “and” joins values, the source holds several entries; their conditions need not be identical. Identical values can stand only once.

Key:
Assay type in all cases: functional
Mus musculus [1] = experiment: Parenteral antimalarial activity against Plasmodium vinckei in mice (Mus musculus) measured as % cured and increase in MST (days) at 15 mg/kg dose.
Mus musculus [2] = experiment: Parenteral antimalarial activity against Plasmodium vinckei vinckei in mice (Mus musculus) measured as increase in mean survival time at 20 mg/kg dose.
Mus musculus [3] = experiment: Oral antimalarial activity against Plasmodium vinckei in mice (Mus musculus) measured as increase in mean survival time at 25 mg/kg dose.
Mus musculus [4] = experiment: Parenteral antimalarial activity against Plasmodium vinckei vinckei in mice (Mus musculus) measured as % cured and increase in MST (days) at 25 mg/kg dose.
Mus musculus [5] = experiment: Oral antimalarial activity against Plasmodium vinckei in mice (Mus musculus) measured as % cured and increase in MST (days) at 50 mg/kg dose.
Mus musculus [6] = experiment: Oral antimalarial activity against Plasmodium vinckei vinckei in mice (Mus musculus) measured as % cured and increase in MST (days) at 150 mg/kg dose.
Mus musculus [7] = experiment: Oral antimalarial activity against Plasmodium vinckei in mice (Mus musculus) measured as % cured and increase in MST (days) at 75 mg/kg dose.
Mus musculus [8] = experiment: Oral antimalarial activity against Plasmodium vinckei vinckei in mice (Mus musculus) measured as increase in mean survival time at 75 mg/kg dose.
Mus musculus [9] = experiment: Parenteral antimalarial activity against Plasmodium vinckei vinckei in mice (Mus musculus) measured as % cured and increase in MST (days) at 30 mg/kg dose.
Mus musculus [10] = experiment: Parenteral antimalarial activity against Plasmodium vinckei vinckei in mice (Mus musculus) measured as increase in mean survival time at 25 mg/kg dose.
Mus musculus [11] = experiment: Parenteral antimalarial activity against Plasmodium vinckei vinckei in mice (Mus musculus) measured as % cured and increase in MST (days) at 20 mg/kg dose.
Mus musculus [12] = experiment: Oral antimalarial activity against Plasmodium vinckei in mice (Mus musculus) measured as % cured and increase in MST (days) at 25 mg/kg dose.
Mus musculus [13] = experiment: Parenteral antimalarial activity against Plasmodium vinckei vinckei in mice (Mus musculus) measured as increase in mean survival time at 30 mg/kg dose.
Mus musculus [14] = experiment: Oral antimalarial activity against Plasmodium vinckei vinckei in mice (Mus musculus) measured as increase in mean survival time at 50 mg/kg dose.
Mus musculus [15] = experiment: Oral antimalarial activity against Plasmodium vinckei vinckei in mice (Mus musculus) measured as increase in mean survival time at 100 mg/kg dose.
Mus musculus [16] = experiment: Parenteral antimalarial activity against Plasmodium vinckei in mice (Mus musculus) measured as increase in mean survival time at 15 mg/kg dose.
Mus musculus [17] = experiment: Oral antimalarial activity against Plasmodium vinckei vinckei in mice (Mus musculus) measured as % cured and increase in MST (days) at 100 mg/kg dose.
Mus musculus [18] = experiment: Oral antimalarial activity against Plasmodium vinckei in mice (Mus musculus) measured as increase in mean survival time at 150 mg/kg dose.
Mus musculus [19] = experiment: Parenteral antimalarial activity against Plasmodium vinckei in mice (Mus musculus) measured as % cured and increase in MST (days) at 10 mg/kg dose
Mus musculus [20] = experiment: Oral antimalarial activity against Plasmodium vinckei vinckei in mice (Mus musculus) measured as % cured and increase in MST (days) at 150 mg/kg dose
Mus musculus [21] = experiment: Oral antimalarial activity against Plasmodium vinckei vinckei in mice (Mus musculus) measured as % cured and increase in MST (days) at 50 mg/kg dose
Mus musculus [22] = experiment: Parenteral antimalarial activity against Plasmodium vinckei in mice (Mus musculus) measured as % cured and increase in MST (days) at 20 mg/kg dose
Mus musculus [23] = experiment: Parenteral antimalarial activity against Plasmodium vinckei vinckei in mice (Mus musculus) measured as % cured and increase in MST (days) at 15 mg/kg dose
Mus musculus [24] = experiment: Oral antimalarial activity against Plasmodium vinckei vinckei in mice (Mus musculus) measured as % cured and increase in MST (days) at 100 mg/kg dose
Mus musculus [25] = experiment: Parenteral antimalarial activity against Plasmodium vinckei in mice (Mus musculus) measured as increase in mean survival time at 10 mg/kg dose
Mus musculus [26] = experiment: Oral antimalarial activity against Plasmodium vinckei in mice (Mus musculus) measured as increase in mean survival time at 100 mg/kg dose
Mus musculus [27] = experiment: Oral antimalarial activity against Plasmodium vinckei vinckei in mice (Mus musculus) measured as increase in mean survival time at 50 mg/kg dose
Mus musculus [28] = experiment: Oral antimalarial activity against Plasmodium vinckei in mice (Mus musculus) measured as increase in mean survival time at 25 mg/kg dose
Mus musculus [29] = experiment: Oral antimalarial activity against Plasmodium vinckei in mice (Mus musculus) measured as % cured and increase in MST (days) at 75 mg/kg dose
Mus musculus [30] = experiment: Oral antimalarial activity against Plasmodium vinckei in mice (Mus musculus) measured as % cured and increase in MST (days) at 25 mg/kg dose
Mus musculus [31] = experiment: Oral antimalarial activity against Plasmodium vinckei in mice (Mus musculus) measured as increase in mean survival time at 150 mg/kg dose
Mus musculus [32] = experiment: Oral antimalarial activity against Plasmodium vinckei vinckei in mice (Mus musculus) measured as increase in mean survival time at 75 mg/kg dose
Mus musculus [33] = experiment: Parenteral antimalarial activity against Plasmodium vinckei in mice (Mus musculus) measured as increase in mean survival time at 15 mg/kg dose
Mus musculus [34] = experiment: Parenteral antimalarial activity against Plasmodium vinckei in mice (Mus musculus) measured as increase in mean survival time at 20 mg/kg dose
Mus musculus [35] = experiment: Parenteral antimalarial activity against Plasmodium vinckei in mice (Mus musculus) measured as % cured and increase in MST (days) at 30 mg/kg dose
Mus musculus [36] = experiment: Parenteral antimalarial activity against Plasmodium vinckei vinckei in mice (Mus musculus) measured as increase in mean survival time at 25 mg/kg dose
Mus musculus [37] = experiment: Parenteral antimalarial activity against Plasmodium vinckei in mice (Mus musculus) measured as increase in mean survival time at 30 mg/kg dose
Mus musculus [38] = experiment: Parenteral antimalarial activity against Plasmodium vinckei in mice (Mus musculus) measured as % cured and increase in MST (days) at 25 mg/kg dose
Mus musculus [39] = experiment: Parenteral antimalarial activity against Plasmodium vinckei in mice (Mus musculus) measured as increase in mean survival time at 10 mg/kg dose.
Mus musculus [40] = experiment: Parenteral antimalarial activity against Plasmodium vinckei vinckei in mice (Mus musculus) measured as % cured and increase in MST (days) at 10 mg/kg dose.

SMILES	Cured (Mus musculus [19]) [%]	Cured (Mus musculus [20]) [%]	Cured (Mus musculus [21]) [%]	Cured (Mus musculus [23]) [%]	Cured (Mus musculus [24]) [%]	MST (Mus musculus [25]) [days]	MST (Mus musculus [26]) [days]	MST (Mus musculus [27]) [days]	MST (Mus musculus [28]) [days]	Cured (Mus musculus [29]) [%]	Cured (Mus musculus [30]) [%]	MST (Mus musculus [31]) [days]	MST (Mus musculus [32]) [days]	MST (Mus musculus [33]) [days]	MST (Mus musculus [34]) [days]	Cured (Mus musculus [22]) [%]	Cured (Mus musculus [35]) [%]	MST (Mus musculus [36]) [days]	MST (Mus musculus [37]) [days]	Cured (Mus musculus [38]) [%]	also measured
Cc1cc(Cl)ccc1-n1c2nc(=O)n(C)c(=O)c-2nc2ccccc21	–	–	–	–	–	–	–	–	–	–	–	–	–	–	–	–	–	–	–	–	Cured (Mus musculus [1]): 0%; MST (Mus musculus [2]): 1.2 days; MST (Mus musculus [3]): 0.5 days; Cured (Mus musculus [4]): 0%; Cured (Mus musculus [5]): 80%; Cured (Mus musculus [6]): 40%; Cured (Mus musculus [7]): 40%; MST (Mus musculus [8]): 3.2 days; Cured (Mus musculus [9]): 0%; MST (Mus musculus [10]): -1.4 days; Cured (Mus musculus [11]): 0%; Cured (Mus musculus [12]): 0%; MST (Mus musculus [13]): -2 days; MST (Mus musculus [14]): 1.5 days; MST (Mus musculus [15]): 2 days; MST (Mus musculus [16]): 1.2 days; Cured (Mus musculus [17]): 60%; MST (Mus musculus [18]): 1.5 days
Cn1c(=O)nc2n(-c3ccc(Cl)cc3)c3ccccc3nc-2c1=O	60	90	75	95	90	1.5	2.7	1.4	2.4	85	45	2.7	1	1	–	–	–	–	–	–	Cured (Mus musculus [22]; 20 mg/kg): 100% and 90%
Cn1c(=O)nc2n(-c3ccc(F)cc3)c3ccccc3nc-2c1=O	0	20	0	0	0	0	1	0.8	0	0	0	2.3	0.6	0.8	0.5	20	0	0.8	0.2	0	–
Cn1c(=O)nc2n(-c3cccc(Cl)c3)c3ccccc3nc-2c1=O	–	60	0	0	0	–	1.2	0	–	20	–	2.5	4.3	0	0.2	0	0	0	0	0	–
Cn1c(=O)nc2n(-c3cccc(Br)c3)c3ccccc3nc-2c1=O	–	60	20	0	60	–	1.5	–	–	40	0	1	1.5	1.3	1.4	20	60	3	1	60	MST (Mus musculus [28]; 25 mg/kg): 1 days and 2 days
Cn1c(=O)nc2n(-c3cccc(F)c3)c3ccccc3nc-2c1=O	–	–	–	–	–	–	–	–	0	–	–	–	–	–	–	–	–	–	–	–	Cured (Mus musculus [1]): 0%; MST (Mus musculus [2]): 1.7 days; Cured (Mus musculus [4]): 0%; MST (Mus musculus [39]): 0 days; Cured (Mus musculus [5]): 40%; Cured (Mus musculus [6]): 40%; Cured (Mus musculus [7]): 20%; MST (Mus musculus [8]): 2.5 days; Cured (Mus musculus [9]): 0%; MST (Mus musculus [10]): 2 days; Cured (Mus musculus [11]): 40%; Cured (Mus musculus [12]): 40%; MST (Mus musculus [13]): 2.2 days; MST (Mus musculus [14]): 0 days; MST (Mus musculus [15]): 0 days; Cured (Mus musculus [40]): 0%; MST (Mus musculus [16]): 0.2 days; Cured (Mus musculus [17]): 80%; MST (Mus musculus [18]): 0 days
Cn1c(=O)nc2n(-c3ccc(Br)cc3)c3ccccc3nc-2c1=O	80	100	100	100	100	2	–	–	3.5	100	60	–	–	–	–	100	40	14	13	60	–
